Results taken from patent US11884710B2, “Peptide compounds and methods of use in wound healing” (priority 2013, dated 2024).

System: PKCδ
Test: Immunofluorescence for PKCδ in HCEC monolayers
Assay type: cell-based, human
Conditions: PMA 1 μM; 15 minutes; scratched monolayers
Experimental: HCEC monolayers were grown to confluency and were scratched with a 10 μl pipette tip or left unscratched, and then the monolayers were treated for 15 minutes with (A-B) buffer, (C-D) PMA (1 μM), (E-F) 250 ng/ml CAP37, and (G-J) 500 ng/ml CAP37. Cells were stained for PKCδ (250 ng/ml; (A-H)), and PKCα (1 μg/ml; (I-J)) and detected using immunofluorescence (4 μg/ml, ALEXA FLUOR® 488 dye (Life Technologies Corp., Grand Island, N.Y.)). […] Scratched monolayers that were treated for 18 hours with CAP37 (250 ng/ml; (L)) or left untreated (K) were stained for PKCδ. […] Scale bars, 20 μm.
Immunofluorescence: HCECs and primary HCECs were cultured on Lab-Tek® II glass chamber slides (Nunc, Rochester, N.Y.) and starved overnight in basal media. For wounding studies, monolayers were scratched with a 10 μl pipette tip or left unscratched and treated with 1 μM phorbol 12-myristate 13-acetate (PMA, Sigma-Aldrich), rCAP37 (25-500 ng/ml), or basal KSFM (Gibco) for 15 minutes. After treatment, the cells were fixed in 4% (v/v) formaldehyde solution (Thermo, Rockford, Ill.) in PBS (Gibco) for 20 minutes at room temperature followed by permeabilization in 0.5% TRITON™-X 100 (Mallinckrodt, St. Louis, Mo.) in PBS for 10 minutes. Remaining formaldehyde was quenched with 0.05 M ammonium chloride (NH4Cl, Sigma-Aldrich, St. Louis, Mo.) in PBS for 10 minutes. […]

With `CCCCCCCCCCCCCC(=O)O[C@@H]1[C@@H](C)[C@@]2(O)[C@@H](C=C(CO)C[C@]3(O)C(=O)C(C)=C[C@@H]23)[C@@H]2C(C)(C)[C@]12OC(C)=O` [PMA, phorbol 12-myristate 13-acetate, reference compound] the “PKCδ staining, in words” value was “increased staining”.
